Measured values as given in patent US12570655B2, “Cysteine covalent modifiers of AKT1 and uses thereof” (Terremoto Biosciences, Inc., priority 2023, dated 2026).
Like-named read-outs stand apart in the source and are kept apart here.

Legend:
Assay type in all cases: cell-based
AKT2 = target: T1, AKT2 (Homo sapiens, UniProt P31751); experiment: Live cell AKT2 target engagement by NanoBRET competitive probe displacement; settings: HEK293 cells transfected with kinase-NanoLuciferase fusion, 2 h at 37° C.
T1 construct: expressed in transfected cells; host or cells: HEK293
T1 sequence (P31751 whole entry, the tested form may be a part): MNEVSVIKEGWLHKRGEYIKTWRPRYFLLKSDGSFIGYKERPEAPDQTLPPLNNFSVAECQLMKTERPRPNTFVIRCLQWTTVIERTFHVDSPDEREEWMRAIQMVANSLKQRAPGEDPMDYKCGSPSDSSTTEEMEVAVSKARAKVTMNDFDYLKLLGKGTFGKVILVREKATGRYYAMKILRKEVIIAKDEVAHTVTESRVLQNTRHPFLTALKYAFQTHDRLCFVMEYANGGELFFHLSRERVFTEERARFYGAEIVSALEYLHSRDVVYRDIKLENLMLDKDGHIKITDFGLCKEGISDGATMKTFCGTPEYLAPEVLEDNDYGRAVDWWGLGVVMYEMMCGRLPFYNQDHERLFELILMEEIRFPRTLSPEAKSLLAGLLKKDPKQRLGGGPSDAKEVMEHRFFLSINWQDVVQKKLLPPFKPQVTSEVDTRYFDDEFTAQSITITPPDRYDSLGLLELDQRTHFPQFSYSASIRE
Procedure, shortened: (§1)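 HEK293 cells transiently expressing kinase–NanoLuc fusions overnight; treated with serial compound dilutions plus fluorescent ATP-competitive tracer at ~EC50, 2 h at 37 °C. BRET ratio E600/E460 read after substrate and extracellular luciferase inhibitor; IC50 from log(inhibitor) vs response Hill fit.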

AKT1 WT = target: T2, AKT1 WT (Homo sapiens, UniProt P31749); experiment: Live cell AKT1 WT target engagement by NanoBRET competitive probe displacement; settings: HEK293 cells transfected with kinase-NanoLuciferase fusion, 2 h at 37° C.
T2 construct: expressed in transfected cells; host or cells: HEK293
T2 sequence (P31749 whole entry, the tested form may be a part): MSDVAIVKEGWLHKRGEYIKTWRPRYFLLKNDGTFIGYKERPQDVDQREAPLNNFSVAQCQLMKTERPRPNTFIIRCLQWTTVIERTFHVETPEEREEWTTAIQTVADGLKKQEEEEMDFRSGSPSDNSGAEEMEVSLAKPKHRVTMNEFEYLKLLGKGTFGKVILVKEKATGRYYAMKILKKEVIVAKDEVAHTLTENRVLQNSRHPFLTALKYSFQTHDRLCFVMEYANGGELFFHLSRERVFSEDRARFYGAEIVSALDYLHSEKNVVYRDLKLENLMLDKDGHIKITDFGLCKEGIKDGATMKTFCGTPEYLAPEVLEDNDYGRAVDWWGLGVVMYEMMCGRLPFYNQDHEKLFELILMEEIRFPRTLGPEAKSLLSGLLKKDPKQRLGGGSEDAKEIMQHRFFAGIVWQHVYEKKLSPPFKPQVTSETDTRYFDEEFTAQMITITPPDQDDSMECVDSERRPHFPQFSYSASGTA
Procedure, shortened: as §1

[1] = system: LAPC4 prostate cancer cells; experiment: Antiproliferative effects in LAPC4 cells (CellTiter Glo); settings: LAPC4 cells (AKT1 E17K allele), read-out: LAPC4 proliferation IC50
Procedure, shortened: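 LAPC4 prostate cancer cells carrying AKT1 E17K, grown in IMDM with 12% FBS, were seeded at 1,000 cells/well and exposed to compound dilutions for 72 h. Viability was read as intracellular ATP by CellTiter Glo luminescence, and IC50 was fitted with a log(inhibitor) vs. response Hill equation.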

AKT1 E17K = target: T3, AKT1 E17K (Homo sapiens, UniProt P31749, E17K); experiment: Live cell AKT1 E17K target engagement by NanoBRET competitive probe displacement; settings: HEK293 cells transfected with kinase-NanoLuciferase fusion, 2 h at 37° C.
T3 construct: expressed in transfected cells; host or cells: HEK293
T3 sequence (P31749 whole entry E17K, the tested form may be a part): as the sequence (P31749 whole entry, the tested form may be a part) above, with E17K counted along it
Procedure, shortened: as §1

Row | Structure (SMILES) | IC50 (AKT2) [nM] | IC50 (AKT1 WT) [nM] | IC50 ([1]; Homo sapiens, LAPC4, 72 h) [nM] | IC50 (AKT1 E17K) [nM] | IC50 ([1]; 72 h) [nM]
1 | C=C(F)C(=O)N1CCC2(CC1)CC(N[C@H]1CCc3cc(-n4c(-c5cccnc5N)nc5ccc(-n6cccn6)nc54)ccc31)C2 [Example 84, (S)-1-(2-((5-(2-(2-aminopyridin-3-yl)-5-(1H-pyrazol-1-yl)-3H-imidazo[4,5-b]pyridin-3-yl)-2,3-dihydro-1H-inden-1-yl)amino)-7-azaspiro[3.5]nonan-7-yl)-2-fluoroprop-2-en-1-one] | 278 | 34.1 | 327 | 264 | –
2 | C=CC(=O)N1CCN(NC2CCc3cc(-n4c(-c5cccnc5N)nc5ccc(-n6ccc(F)n6)nc54)ccc32)CC1 (single isomer, unassigned) [Example 201, 1-(4-{[(1*)-5-[2-(2-aminopyridin-3-yl)-5-(3-fluoropyrazol-1-yl)imidazo[4,5-b]pyridin-3-yl]-2,3-dihydro-1H-inden-1-yl]amino}piperazin-1-yl)prop-2-en-1-one] | 41 | 96.8 | – | 10.2 | 127
3 | C=CC(=O)N1CCC(N[C@@H]2c3ccc(-n4c(-c5cccnc5N)nc5ccc(-n6ccc(F)n6)nc54)cc3CC2F)CC1 (single isomer, unassigned) [Example 236, 1-(4-(((1R,2*)-5-(2-(2-aminopyridin-3-yl)-5-(3-fluoro-1H-pyrazol-1-yl)-3H-imidazo[4,5-b]pyridin-3-yl)-2-fluoro-2,3-dihydro-1H-inden-1-yl)amino)piperidin-1-yl)prop-2-en-1-one] | 87.2 | 778 | 300 | 12.4 | –
4 | C=CC(=O)N1CCC(N[C@H]2CCc3cc(-n4c(-c5cccnc5N)nc5ccc(-c6ccn(C(F)F)n6)nc54)ccc32)CC1 [Example 107, 1-(4-{[(1S)-5-[2-(2-aminopyridin-3-yl)-5-[1-(difluoromethyl)pyrazol-3-yl]imidazo[4,5-b]pyridin-3-yl]-2,3-dihydro-1H-inden-1-yl]amino}piperidin-1-yl)prop-2-en-1-one] | 192 | 6.19 | 164 | 18.1 | –
5 | C=CC(=O)Nc1cccc(F)c1C(=O)N[C@H]1CCc2cc(-n3c(-c4cccnc4N)nc4ccc(-n5cccn5)nc43)ccc21 [Example 6, N-[(1S)-5-[2-(2-aminopyridin-3-yl)-5-(pyrazol-1-yl)imidazo[4,5-b]pyridin-3-yl]-2,3-dihydro-1H-inden-1-yl]-2-fluoro-6-(prop-2-enamido)benzamide] | 22 | 11.9 | 144 | 20.1 | –
6 | CC#CC(=O)Nc1cccc(C(=O)N[C@H]2CCc3cc(-n4c(-c5cccnc5N)nc5ccc(-n6cccn6)nc54)ccc32)c1 [Example 12, (S)-N-(5-(2-(2-aminopyridin-3-yl)-5-(1H-pyrazol-1-yl)-3H-imidazo[4,5-b]pyridin-3-yl)-2,3-dihydro-1H-inden-1-yl)-3-(but-2-ynamido)benzamide] | 129 | 11.2 | 343 | 12.9 | –
7 | C=C(F)C(=O)Nc1cn(C)nc1C(=O)N[C@H]1CCc2cc(-n3c(-c4cccnc4N)nc4ccc(-n5cccn5)nc43)ccc21 [Example 36, (S)-N-(5-(2-(2-aminopyridin-3-yl)-5-(1H-pyrazol-1-yl)-3H-imidazo[4,5-b]pyridin-3-yl)-2,3-dihydro-1H-inden-1-yl)-4-(2-fluoroacrylamido)-1-methyl-1H-pyrazole-3-carboxamide] | 982 | 64.5 | 533 | 179 | –
8 | C=C(OC)C(=O)Nc1ccccc1C(=O)N[C@H]1CCc2cc(-n3c(-c4cccnc4N)nc4ccc(-n5cccn5)nc43)ccc21 [Example 108, (S)-N-(5-(2-(2-aminopyridin-3-yl)-5-(1H-pyrazol-1-yl)-3H-imidazo[4,5-b]pyridin-3-yl)-2,3-dihydro-1H-inden-1-yl)-2-(2-methoxyacrylamido)benzamide] | 165 | 10.2 | 94.3 | 42.4 | –
9 | C=CC(=O)N1CCC(N[C@H]2CCc3cc(-n4c(-c5ccc(F)cc5)nc5ccc(-n6cccn6)nc54)ccc32)CC1 [Example 247, 1-(4-{[(1S)-5-[2-(4-fluorophenyl)-5-(pyrazol-1-yl)imidazo[4,5-b]pyridin-3-yl]-2,3-dihydro-1H-inden-1-yl]amino}piperidin-1-yl)prop-2-en-1-one] | 469 | 3120 | 1680 | 113 | –
10 | C=C(C)C(=O)Nc1ccccc1C(=O)N[C@H]1CCc2cc(-n3c(-c4cccnc4N)nc4ccc(-n5cccn5)nc43)ccc21 [Example 17, (S)-N-(5-(2-(2-aminopyridin-3-yl)-5-(1H-pyrazol-1-yl)-3H-imidazo[4,5-b]pyridin-3-yl)-2,3-dihydro-1H-inden-1-yl)-2-methacrylamidobenzamide] | 1020 | 43 | 2330 | 146 | –

Other lines, results leading:

Row | IC50 (AKT2) [nM] | IC50 (AKT1 WT) [nM] | IC50 ([1]; Homo sapiens, LAPC4, 72 h) [nM] | IC50 (AKT1 E17K) [nM] | IC50 ([1]; 72 h) [nM] | Structure (SMILES)
11 | 50.9 | 7.33 | – | 8.87 | 25.3 | C#CC1CC(N[C@H]2CCc3cc(-n4c(-c5cccnc5N)nc5ccc(-n6cccn6)nc54)ccc32)CCN1C(=O)C=C (single isomer, unassigned) [Example 113, 1-((2*,4*)-4-(((S)-5-(2-(2-aminopyridin-3-yl)-5-(1H-pyrazol-1-yl)-3H-imidazo[4,5-b]pyridin-3-yl)-2,3-dihydro-1H-inden-1-yl)amino)-2-ethynylpiperidin-1-yl)prop-2-en-1-one]
12 | 38.5 | 127 | 90 | 10.4 | – | C=CC(=O)N1CCC(N[C@H]2CCc3cc(-n4c(-c5cccnc5N)nc5ccc(-n6ccc(Cl)n6)nc54)ccc32)CC1 [Example 252, 1-(4-{[(1S)-5-[2-(2-aminopyridin-3-yl)-5-(3-chloropyrazol-1-yl)imidazo[4,5-b]pyridin-3-yl]-2,3-dihydro-1H-inden-1-yl]amino}piperidin-1-yl)prop-2-en-1-one]
13 | 86.3 | 16 | – | 19 | 74.4 | C=CC(=O)N1C[C@H]2COC[C@@H](C1)C2N[C@H]1CCc2cc(-n3c(-c4cccnc4N)nc4ccc(-n5cccn5)nc43)ccc21 (single isomer, unassigned) [Example 73, 1-((1R,5S,9*)-9-(((S)-5-(2-(2-aminopyridin-3-yl)-5-(1H-pyrazol-1-yl)-3H-imidazo[4,5-b]pyridin-3-yl)-2,3-dihydro-1H-inden-1-yl)amino)-3-oxa-7-azabicyclo[3.3.1]nonan-7-yl)prop-2-en-1-one]
14 | 513 | 1140 | – | 58.7 | 941 | C=CC(=O)N1CCC(N[C@@H]2c3ccc(-n4c(-c5cccnc5N)nc5ccc(-n6cccn6)nc54)cc3CC2C)CC1 (single isomer, unassigned) [Example 181, 1-(4-{[(1S,2*)-5-[2-(2-aminopyridin-3-yl)-5-(pyrazol-1-yl)imidazo[4,5-b]pyridin-3-yl]-2-methyl-2,3-dihydro-1H-inden-1-yl]amino}piperidin-1-yl)prop-2-en-1-one]
15 | 912 | 2170 | 4130 | 53.2 | – | CC(C)=CC(=O)N1CCC(N[C@H]2CCc3cc(-n4c(-c5cccnc5N)nc5ccc(-n6cccn6)nc54)ccc32)CC1 [Example 185, 1-(4-{[(1S)-5-[2-(2-aminopyridin-3-yl)-5-(pyrazol-1-yl)imidazo[4,5-b]pyridin-3-yl]-2,3-dihydro-1H-inden-1-yl]amino}piperidin-1-yl)-3-methylbut-2-en-1-one]
16 | 143 | 21.6 | – | 127 | 343 | C#CC1CC(N[C@H]2CCc3cc(-n4c(-c5cccnc5N)nc5ccc(-n6cccn6)nc54)ccc32)CCN1C(=O)C=C (single isomer, unassigned) [Example 111, 1-((2*,4*)-4-(((S)-5-(2-(2-aminopyridin-3-yl)-5-(1H-pyrazol-1-yl)-3H-imidazo[4,5-b]pyridin-3-yl)-2,3-dihydro-1H-inden-1-yl)amino)-2-ethynylpiperidin-1-yl)prop-2-en-1-one]
17 | 92.7 | 4.52 | – | 20.6 | 120 | C=CC(=O)N1CCC(N[C@H]2CCc3cc(-n4c(-c5cccnc5N)nc5ccc(-n6cccn6)nc54)ccc32)C(F)C1 (single isomer, unassigned) [Example 104, 1-((3*,4*)-4-(((S)-5-(2-(2-aminopyridin-3-yl)-5-(1H-pyrazol-1-yl)-3H-imidazo[4,5-b]pyridin-3-yl)-2,3-dihydro-1H-inden-1-yl)amino)-3-fluoropiperidin-1-yl)prop-2-en-1-one]
18 | 3580 | 370 | – | > 1000 | 1490 | C=CC(=O)N1CCC(N[C@H]2CCc3cc(-n4c(-c5cccnc5N)nc5ccc(-n6cccn6)nc54)ccc32)C(O)C1 (single isomer, unassigned) [Example 140, 1-[(3*,4*)-4-{[(1S)-5-[2-(2-aminopyridin-3-yl)-5-(pyrazol-1-yl)imidazo[4,5-b]pyridin-3-yl]-2,3-dihydro-1H-inden-1-yl]amino}-3-hydroxypiperidin-1-yl]prop-2-en-1-one]
